Among the data in patent US20220227707A1, “COMPOUNDS AND COMPOSITIONS FOR TREATING CONDITIONS ASSOCIATED WITH NLRP ACTIVITY” (Novartis AG, priority 2019, published 2022) are IC50 values, retold here.

SMILES strings stand for the structures.

The first experiment deals with IL-1β production in PMA-differentiated THP-1 cells. The experiment can be described thus: IL-1β production in PMA-differentiated THP-1 cells stimulated with gramicidin (hTHP-1 assay). Particulars: Average IC50, hTHP-1 assay containing 2% fetal bovine serum; Table 10, class symbols. Format: cell-based, human. On the procedure:
Procedure 1: IL-1β Production in PMA-Differentiated THP-1 Cells Stimulated with Gramicidin
THP-1 cells were purchased from the American Type Culture Collection and sub-cultured according to instructions from the supplier. Cells were cultured in complete RPMI 1640 (containing 10% heat inactivated FBS, penicillin (100 units/ml) and streptomycin (100 μg/ml)), and maintained in log phase prior to experimental setup. Prior to the experiment, compounds were dissolved in dimethyl sulfoxide (DMSO) to generate a 30 mM stock. The compound stock was first pre-diluted in DMSO to 3, 0.34, 0.042 and 0.0083 mM intermediate concentrations and subsequently spotted using Echo550 liquid handler into an empty 384-well assay plate to achieve desired final concentration (e.g. 100, 33, 11, 3.7, 1.2, 0.41, 0.14, 0.046, 0.015, 0.0051, 0.0017 μM). DMSO was backfilled in the plate to achieve a final DMSO assay concentration of 0.37%. The plate was then sealed and stored at room temperature until required.
THP-1 cells were treated with PMA (Phorbol 12-myristate 13-acetate) (20 ng/ml) for 16-18 hours. On the day of the experiment the media was removed and adherent cells were detached with trypsin for 5 minutes. Cells were then harvested, washed with complete RPMI 1640, spun down, and resuspended in RPMI 1640 (containing 2% heat inactivated FBS, penicillin (100 units/ml) and streptomycin (100 μg/ml). The cells were plated in the 384-well assay plate containing the spotted compounds at a density of 50,000 cells/well (final assay volume 50 μl). Cells were incubated with compounds for 1 hour and then stimulated with gramicidin (5 μM) (Enzo) for 2 hours. Plates were then centrifuged at 340 g for 5 min. Cell free supernatant ([…]) was collected using a 96-channel PlateMaster (Gilson) and the production of IL-1β was evaluated by HTRF (cisbio). The plates were incubated for 18 h at 4° C. and read using the preset HTRF program (donor emission at 620 nm, acceptor emission at 668 nm) of the SpectraMax i3x spectrophotometer (Molecular Devices, software SoftMax 6). A vehicle only control and a dose titration of CRID3 (100-0.0017 μM) were run concurrently with each experiment.
Procedure 2: […] Production in PMA-Differentiated THP-1 Cells Stimulated with Gramicidin
THP-1 cells were purchased from the American Type Culture Collection and sub-cultured according to instructions from the supplier. Prior to experiments, cells were cultured in complete RPMI 1640 (containing 10% heat inactivated FBS, penicillin (100 units/ml) and streptomycin (100 μg/ml)), and maintained in log phase prior to experimental setup. Prior to the experiment THP-1 were treated with PMA (Phorbol 12-myristate 13-acetate) (20 ng/ml) for 16-18 hours. Compounds were dissolved in dimethyl sulfoxide (DMSO) to generate a 30 mM stock. On the day of the experiment the media was removed and adherent cells were detached with trypsin for 5 minutes. Cells were then harvested, washed with complete RPMI 1640, spun down, resuspended in RPMI 1640 (containing 2% heat inactivated FBS, penicillin (100 units/ml) and streptomycin (100 μg/ml). The cells were plated in a 384-well plate at a density of 50,000 cells/well (final assay volume 50 μl). Compounds were first dissolved in assay medium to obtain a 5× top concentration of 500 μM. 10 step dilutions (1:3) were then undertaken in assay medium containing 1.67% DMSO. 5× compound solutions were added to the culture medium to achieve desired final concentration (e.g. 100, 33, 11, 3.7, 1.2, 0.41, 0.14, 0.046, 0.015, 0.0051, 0.0017 μM). Final DMSO concentration was at 0.37%. Cells were incubated with compounds for 1 hour and then stimulated with gramicidin (5 μM) (Enzo) for 2 hours. Plates were then centrifuged at 340 g for 5 min. Cell free supernatant (40 μL) was collected using a 96-channel PlateMaster (Gilson) and the production of IL-1β was evaluated by HTRF (cisbio). A vehicle only control and a dose titration of CRID3 (100-0.0017 μM) were run concurrently with each experiment. […]
With `NS(=O)(=NC(=O)Nc1c2c(cc3c1CCC3)CCC2)C1CC1` (single isomer, unassigned) [Compound 155], the IC50 (as a rule, the midpoint of a concentration-inhibition curve) fell in the range of 5 to 30 µM.

As to `CN(C)CCCS(N)(=O)=NC(=O)Nc1c2c(cc3c1CCC3)CCC2` (stereo not drawn) [Compound 144], the IC50 lay within 5 to 30 µM. Same read-out and setting: the figure for `CN(C)CCCS(N)(=O)=NC(=O)Nc1c2c(cc3c1CCC3)CCC2` (single isomer, unassigned) [Compound 143, 3-(dimethylamino)-N′-((1,2,3,5,6,7-hexahydro-s-indacen-4-yl)carbamoyl)propane-1-sulfonimidamide] is 5 to 30 µM; for `CN(C)CCCS(N)(=O)=NC(=O)Nc1c2c(cc3c1CCC3)CCC2` (single isomer, unassigned) [Compound 142, 3-(dimethylamino)-N′-((1,2,3,5,6,7-hexahydro-s-indacen-4-yl)carbamoyl)propane-1-sulfonimidamide] it is 1 to 5 µM.

The experiment is the same for the next values; noted with them: Homo sapiens, THP-1, Average IC50, hTHP-1 assay containing 2% fetal bovine serum; Table 3B, class symbols.
In the case of `CN(C)S(N)(=O)=NC(=O)Nc1c2c(cc3c1CCC3)CCC2` (stereo not drawn) [Compound 101B, 3-[amino(dimethylamino)oxo-lambda6-sulfanylidene]-1-(1,2,3,5,6,7-hexahydro-s-indacen-4-yl)urea], the IC50 fell in the range of 5 to 30 µM.

Staying with this experiment, now noted: Homo sapiens, THP-1, Average IC50, hTHP-1 assay containing 2% fetal bovine serum; Table 10, class symbols.
In the case of `CN(C)CCCC(=O)NS(C)(=O)=NC(=O)Nc1c2c(cc3c1CCC3)CCC2` (single isomer, unassigned) [Compound 119, 4-(dimethylamino)-N—(N-((1,2,3,5,6,7-hexahydro-s-indacen-4-yl)carbamoyl)-S-methylsulfonimidoyl)butanamide], the IC50 was 5 to 30 µM. Same read-out and setting: the same measure for `CC(CCc1ccccc1)S(N)(=O)=NC(=O)Nc1c2c(cc3c1CCC3)CCC2` (stereo not drawn) [Compound 109]: 5 to 30 µM; for `CS(N)(=O)=NC(=O)Nc1c2c(cc3c1CCC3)CCC2` (stereo not drawn) [Compound 115, N′-((1,2,3,5,6,7-hexahydro-s-indacen-4-yl)carbamoyl) methane-sulfonimidamide]: 5 to 30 µM.

Compound `NS(=O)(=NC(=O)Nc1c2c(cc3c1CCC3)CCC2)C1CCCC1` (stereo not drawn) [Compound 153] gave an IC50 of 5 to 30 µM. Still for that read-out and setting: the same measure for `CC1(S(N)(=O)=NC(=O)Nc2c3c(cc4c2CCC4)CCC3)CC1` (stereo not drawn) [Compound 162]: 0.2 to 1 µM; for `CN1CCC(CS(N)(=O)=NC(=O)Nc2c3c(cc4c2CCC4)CCC3)C1` (single isomer, unassigned) [Compound 114]: 5 to 30 µM.

Staying with this experiment, now noted: Homo sapiens, THP-1, Average IC50, hTHP-1 assay containing 2% fetal bovine serum; Table 10, numeric values.
The compound `CC(CN(C)C)CS(N)(=O)=NC(=O)Nc1c2c(cc3c1CCC3)CCC2` (single isomer, unassigned) [Compound 124, 3-(dimethylamino)-N′-((1,2,3,5,6,7-hexahydro-s-indacen-4-yl)carbamoyl)-2-methylpropane-1-sulfonimidamide] returned an IC50 above 30 µM.

Compound `COC(=O)c1cccc(CS(=O)(=O)NC(=O)Cc2c(C(C)C)cc(F)cc2C(C)C)c1` [Compound 514] came in with an IC50 above 100 µM. Take `CC(C)c1cc(F)cc(C(C)C)c1CC(=O)NS(=O)(=O)CCC(=O)O` [Compound 515]: the IC50 is above 100 µM. On the same count and under the same terms, the same measure for `CS(=O)(=NC(=O)Nc1c2c(cc3c1CCC3)CCC2)NC(=O)c1ccccc1` (stereo not drawn) [Compound 108]: above 30 µM; for `CN1CCC(S(N)(=O)=NC(=O)Nc2c3c(cc4c2CCC4)CCC3)C1` (single isomer, unassigned) [Compound 134, N′-((1,2,3,5,6,7-hexahydro-s-indacen-4-yl)carbamoyl)-1-methylpyrrolidine-3-sulfonimidamide]: above 30 µM.

In turn, `NS(=O)(=NC(=O)Nc1c2c(cc3c1CCC3)CCC2)C1CCCC1` (stereo not drawn) [Compound 151] returned an IC50 above 30 µM. On the same count and under the same terms, the figure for `CC(C)c1cc(F)cc(C(C)C)c1CC(=O)N=S(N)(=O)C1CCCC1` (stereo not drawn) [Compound 304] is above 30 µM. The same measure, in the same setting: the figure for `CC(C)c1cc(F)cc(C(C)C)c1CC(=O)NS(=O)(=O)Cc1ccccc1C(=O)O` [Compound 517] is above 100 µM; for `CC(C)c1cc(F)cc(C(C)C)c1CC(=O)NS(=O)(=O)Cc1ccccc1` [Compound 511] it is above 100 µM; for `CC1(S(N)(=O)=NC(=O)Nc2c3c(cc4c2CCC4)CCC3)CC1` (stereo not drawn) [Compound 161] it is above 30 µM.
